What was measured:
hSLC13A5 [1] = molecular target: T1, hSLC13A5 (Homo sapiens, UniProt Q86YT5); assay: HepG2/14C-citrate uptake assay; format: cell-based; set-up: HepG2 cells endogenously express hSLC13A5 transporter which is responsible for the uptake of citrate into these cells; endogenous in cells; host or cells: HepG2; conditions: HepG2 cells endogenously expressing hSLC13A5; Cytostar-T; 14C-citrate ~1.8 μM; incubation over night
Source text: (4) HepG2/^14C-Citrate Uptake Assay
HepG2 cells endogenously expressing hSLC13A5 were obtained from the Wistar Institute (Knowles et al., Science 1980, 209, 497-499).
HepG2 cells endogenously express hSLC13A5 transporter which is responsible for the uptake of citrate into these cells. […] The uptake of ^14C-citrate into HepG2 cells is monitored using the Cytostar-T assay. This assay format is based on the imported radioactive citrate brought into proximity with the scintillant contained within the base of the plate by virtue of the biological processes within the cells. The radioactive decay is converted to a light signal based on the integration of the scintillation matrix into the assay plate.
(§1) Method: ^14C-Citrate Uptake Assay
Starting from 10 mM stock solutions in 100% DMSO, compounds are diluted in pure DMSO using the appropriate dilution steps. Prior to the uptake assay, 400 μL assay medium+4.8 μL compound solution (or pure DMSO for non-inhibited control wells) are mixed (final DMSO concentration in the assay: 1% (v/v)) ^14C-citrate working solution (volumes required per 96-well):
The HepG2 cells are cultivated in cell culture medium (EMEM+10% fetal calf serum+1×NEAA and 10 mM L-Glutamin) For the assay, the medium of the confluent cultures is discarded and the cells are washed with DPBS w/o Mg^2+ w/o Ca^2+. The cells are detached by the addition of 1.0 mL 2× Trypsin in DPBS w/o Mg^2+ w/o Ca^2+ with 7.5 mM EDTA per 75 cm^2 culture flask for up to 3 minutes at 37° C. and resuspended in 10 mL cell culture medium. Following cell counting, 100,000 cells/well are seeded in a volume of 200 μL into Cytostar-T Scintillating 96-well microplates. After overnight incubation in a humid cell culture incubator at 37° C., 5% CO2, the cell culture medium is carefully aspirated and the cells are incubated with 200 μL prewarmed (37° C.) assay medium (50% DMEM+50% Ham's F-12+15 mM HEPES (pH 7.4) (medium contains 15.5 m M D(+)-glucose) per well for at least 1 h prior to the experiment.
Immediately prior to uptake assay, the assay medium is carefully removed and 100 μL test compound dilution is added to each well (n=3).
Following a 20 min incubation at 37° C. in the cell culture incubator, 20 μL of ^14C-citrate working solution is added to each well (final volume per well: 120 μL; final ^14C-citrate concentration ˜1.8 μM/well)).
After incubation over night at 37° C. in the cell culture incubator, the plates are sealed on the top using a transparent plastic foil and on the bottom using a white plastic foil. Following the sealing, the plate is placed into the TopCount NXT HTS and the signal is recorded.
(§2) The IC50 values of the compounds are calculated in IDBS XLfit by sigmoidal dose-response (variable slope).

hSLC13A5 [2] = molecular target: T1, hSLC13A5; assay: Recombinant hSLC13A5/14C-citrate uptake assay; format: cell-based; conditions: HEK293 Flp-In cells over-expressing hSLC13A5; WGA-PVT SPA beads; 14C-citrate approx. 2 μM; 4 h
Source text: (5) Recombinant hSLC13A5/^14C-Citrate Uptake Assay
The human embryonic kidney 293 (HEK 293)-Flp-In cells (293Flp-In-hSLC13A5) over-expressing hSLC13A5 transporter were cloned: The originating plasmid pcDNA3.1-hSLC13A5 containing hSLC13A5 was synthesized at GeneArt. The cDNA for hSLC13A5 was taken from this plasmid by means of PCR amplification using primers with added HindIII (N-terminal) and XhoI (C-terminal) restriction sites and sub-cloned in frame into pcDNA5/FRT from Invitrogen using the respective restriction enzymes. HEK293 Flp-In cells from Invitrogen were stably co-transfected using the pcDNA/FRT-hSLC13A5 plasmid as well as the pOG44 plasmid.
HEK 293-Flp-In cells are used that stably over-express hSLC13A5 transporter which is responsible for the uptake of citrate into these cells.
The uptake of ^14C-citrate into the 293Flp-In-hSLC13A5 cells is monitored using the WGA-PVT SPA (wheat germ agglutinin-polyvinyltoluene scintillation proximity assay) beads that bind to the 293Flp-In cells due to their WGA-PVT surface. This assay format is based on the imported radioactive citrate brought into proximity with the SPA beads by virtue of the biological processes within the cells. The radioactive decay is converted into a light signal that can be measured using e.g. the TopCount plate reader.
as §1
Test Compound Dilutions (2Fold-Concentrated):
Starting from 10 mM stock solutions in 100% DMSO, compounds are diluted in pure DMSO using the appropriate dilution steps.
Prior to the uptake assay, 200 μL assay medium (lx HBSS (with Ca^2+ and Mg^2+, w/o Phenolred), contains 5.56 mM D(+)-Glucose)+19.44 mM D(+)-Glucose (final concentration of D(+)-Glucose is 25 mM))+4.8 μL compound solution (or pure DMSO for non-inhibited control wells) are mixed (final DMSO concentration in the assay: 1% (v/v)).
After preparing the 2fold-concentrated test compound dilutions, 50 μL are pipetted to each well of white OptiPlates-96 and incubated at 37° C. in an incubator.
^14C-Citrate Working Solution (Volumes Required Per 96-Well):
The 293Flp-In-hSLC13A5 cells are cultivated in cell culture medium (DMEM+10% fetal calf serum+100 μg/mL Hygromycin B). The medium of the confluent cultures is discarded and the cells are washed with DPBS (w/o Mg^2+ w/o Ca^2+). The cells are detached by the addition of 2.0 mL Accumax per 75 cm^2 culture flask for up to 3 minutes at 37° C. and resuspended in 10 mL assay medium. After cell counting, 50,000 cells/well are administered in a volume of 50 μL into the white OptiPlates-96 containing the respective test compound concentrations. Following a 20 min incubation at 37° C. in the cell culture incubator, 20 μL of ^14C-citrate working solution is added to each well (final volume per well: 120 μL; final ^14C-citrate concentration: approx. 2 μM/well).
After incubation for 4 h at 37° C. in a humid cell culture incubator and the addition of 30 μL of WGA-PVT SPA beads to each well (0.25 mg/well), the plates are sealed on the top using a transparent plastic foil. Incubate the plates for 1 h by room temperature and gentle shaking.
After incubation, the plate is placed into the TopCount NXT HTS and the signal is recorded.
The performance of the test compounds is calculated as follows:
Wells containing cells incubated with 1% DMSO only deliver values for the non-inhibited ^14C-citrate uptake into 293Flp-In-hSLC13A5 cells (100% CTL). Wells containing cells which have received 30 mM non-labelled potassium citrate solution in addition to the ^14C-citrate working solution deliver values for the background (0% CTL).
as §2

T1 sequence (Q86YT5 whole entry): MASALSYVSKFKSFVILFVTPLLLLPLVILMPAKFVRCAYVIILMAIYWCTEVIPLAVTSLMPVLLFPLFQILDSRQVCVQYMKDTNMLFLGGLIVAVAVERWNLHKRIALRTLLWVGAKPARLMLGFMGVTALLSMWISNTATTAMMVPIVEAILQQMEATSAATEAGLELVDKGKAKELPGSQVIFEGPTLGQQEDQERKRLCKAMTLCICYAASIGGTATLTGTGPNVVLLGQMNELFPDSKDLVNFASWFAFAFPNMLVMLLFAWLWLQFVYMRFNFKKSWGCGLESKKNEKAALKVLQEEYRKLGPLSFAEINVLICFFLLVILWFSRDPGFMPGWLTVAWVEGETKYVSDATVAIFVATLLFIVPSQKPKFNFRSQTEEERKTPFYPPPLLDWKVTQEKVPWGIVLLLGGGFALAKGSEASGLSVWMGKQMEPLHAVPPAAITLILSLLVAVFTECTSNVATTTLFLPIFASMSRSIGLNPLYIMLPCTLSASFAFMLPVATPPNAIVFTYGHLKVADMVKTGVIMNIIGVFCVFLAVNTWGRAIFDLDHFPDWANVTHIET

Row | SMILES | IC50 (hSLC13A5 [1]) [µM] | IC50 (hSLC13A5 [2]) [µM]
1 | O=C(NCc1ccc(Cl)nc1)C1CCN(S(=O)(=O)c2cc(Cl)cc(Cl)c2)CC1 [(I-3)] | 0.471 | –
2 | CCOc1cc(Cl)cc(S(=O)(=O)N2CCC(C(=O)NCc3ccccn3)CC2)c1 [(I-53)] | 0.11 | 0.41
3 | O=C(NCc1ccccc1Br)C1CCN(S(=O)(=O)c2cc(Cl)cc(Cl)c2)CC1 [(I-6)] | 0.082 | –
4 | Cc1cc(C)cc(S(=O)(=O)N2CCC(C(=O)NCc3ccc(C#N)cc3)CC2)c1 [(I-43)] | 0.046 | –
5 | N#Cc1ccc(CNC(=O)C2CCN(S(=O)(=O)c3cc(Cl)cc(Cl)c3)CC2)c(F)c1 [(I-23)] | 0.142 | 0.091
6 | COc1ccccc1CNC(=O)C1CCN(S(=O)(=O)c2cc(C)cc(C)c2)CC1 [(I-44)] | 0.132 | 0.703
7 | O=C(NCc1ccc(Cl)cn1)C1CCN(S(=O)(=O)c2cc(Cl)cc(Cl)c2)CC1 [(I-12)] | 0.103 | 0.132
8 | COc1cc(Cl)cc(S(=O)(=O)N2CCC(C(=O)NCc3ccc(F)cn3)CC2)c1 [(I-56)] | 0.292 | 0.436
9 | O=C(NCc1cc(F)ccc1F)C1CCN(S(=O)(=O)c2cc(Cl)cc(Cl)c2)CC1 [(I-24)] | 0.083 | –
10 | Cc1cc(C)cc(CNC(=O)C2CCN(S(=O)(=O)c3cc(Cl)cc(Cl)c3)CC2)c1 [(I-4)] | 0.094 | –
11 | Cc1cc(Br)cc(S(=O)(=O)N2CCC(C(=O)NCc3cccnc3)CC2)c1 [(I-60)] | 0.422 | 0.918
12 | Cc1ccc(CNC(=O)C2CCN(S(=O)(=O)c3cc(Cl)cc(Cl)c3)CC2)cn1 [(I-16)] | 0.632 | 0.675
13 | O=C(NCc1cccnc1)C1CCN(S(=O)(=O)c2cc(Br)cc(Br)c2)CC1 [(I-36)] | 0.448 | 0.354
14 | COc1cc(Cl)cc(S(=O)(=O)N2CCC(C(=O)NCc3ccc(F)cc3)CC2)c1 [(I-57)] | 0.048 | 0.167
15 | O=C(NCc1ccccn1)C1CCN(S(=O)(=O)c2cc(Br)cc(Br)c2)CC1 [(I-37)] | 0.253 | 0.089
16 | CCOc1cc(Cl)cc(S(=O)(=O)N2CCC(C(=O)NCc3ccc(C#N)cc3)CC2)c1 [(I-54)] | 0.062 | 0.231
17 | CCOc1cc(Cl)cc(S(=O)(=O)N2CCC(C(=O)NCc3ccc(F)cn3)CC2)c1 [(I-55)] | 0.056 | 0.189
18 | Cc1cc(Br)cc(S(=O)(=O)N2CCC(C(=O)NCc3ccc(F)cn3)CC2)c1 [(I-62)] | 0.099 | 0.232
19 | COc1ncccc1CNC(=O)C1CCN(S(=O)(=O)c2cc(C)cc(Br)c2)CC1 [(I-58)] | 0.168 | 0.837
20 | Cc1ccccc1CNC(=O)C1CCN(S(=O)(=O)c2cc(Cl)cc(Cl)c2)CC1 [(I-19)] | 0.072 | –
21 | CCOc1cc(Cl)cc(S(=O)(=O)N2CCC(C(=O)NCc3ccc(C#N)cc3F)CC2)c1 [(I-50)] | 0.073 | 0.127
22 | O=C(NCc1ccc(F)cc1Cl)C1CCN(S(=O)(=O)c2cc(Cl)cc(Cl)c2)CC1 [(I-22)] | 0.084 | –
23 | COc1ncccc1CNC(=O)C1CCN(S(=O)(=O)c2cc(Cl)cc(Cl)c2)CC1 [(I-13)] | 0.201 | 0.475
24 | O=C(NCc1ccc(Br)cn1)C1CCN(S(=O)(=O)c2cc(Cl)cc(Cl)c2)CC1 [(I-28)] | 0.171 | 0.127
25 | Cc1cc(C)cc(S(=O)(=O)N2CCC(C(=O)NCc3ncc(C)s3)CC2)c1 [(I-46)] | 0.202 | 0.398
26 | COc1ccccc1CNC(=O)C1CCN(S(=O)(=O)c2cc(Cl)cc(Cl)c2)CC1 [(I-21)] | 0.065 | –
27 | O=C(NCc1ccccc1Cl)C1CCN(S(=O)(=O)c2cc(Cl)cc(Cl)c2)CC1 [(I-18)] | 0.06 | –
28 | Cc1csc(CNC(=O)C2CCN(S(=O)(=O)c3cc(Cl)cc(Cl)c3)CC2)n1 [(I-14)] | 0.083 | –

Stronger by IC50 (hSLC13A5 [1]), values ahead:

Row | IC50 (hSLC13A5 [1]) [µM] | IC50 (hSLC13A5 [2]) [µM] | SMILES
29 | 0.027 | – | COc1ccccc1CNC(=O)C1CCN(S(=O)(=O)c2cc(Br)cc(Br)c2)CC1 [(I-34)]
30 | 0.014 | – | O=C(NCc1ccc(Cl)cc1)C1CCN(S(=O)(=O)c2cc(Br)cc(Br)c2)CC1 [(I-30)]
31 | 0.014 | – | O=C(NCc1ccccc1F)C1CCN(S(=O)(=O)c2cc(Br)cc(Br)c2)CC1 [(I-38)]
32 | 0.017 | 0.026 | O=C(NCc1ccc(F)cc1)C1CCN(S(=O)(=O)c2cc(Br)cc(Br)c2)CC1 [(I-40)]
33 | 0.043 | – | Cc1csc(CNC(=O)C2CCN(S(=O)(=O)c3cc(Br)cc(Br)c3)CC2)n1 [(I-29)]
34 | 0.017 | – | Cc1cc(C)cc(S(=O)(=O)N2CCC(C(=O)NCc3ccc(Br)cc3)CC2)c1 [(I-48)]
35 | 0.037 | – | Cc1ccc(CNC(=O)C2CCN(S(=O)(=O)c3cc(Cl)cc(Cl)c3)CC2)cc1 [(I-8)]
36 | 0.023 | – | N#Cc1ccc(CNC(=O)C2CCN(S(=O)(=O)c3cc(Br)cc(Br)c3)CC2)cc1 [(I-32)]
37 | 0.034 | – | Cc1cc(C)cc(S(=O)(=O)N2CCC(C(=O)NCc3ccccc3F)CC2)c1 [(I-47)]
38 | 0.035 | – | Cc1cc(C)cc(S(=O)(=O)N2CCC(C(=O)NCc3ccc(F)cc3)CC2)c1 [(I-42)]
39 | 0.025 | – | Cc1cc(C)cc(S(=O)(=O)N2CCC(C(=O)NCc3ccc(Cl)cc3)CC2)c1 [(I-45)]
40 | 0.014 | – | O=C(NCc1ccc(Br)cc1)C1CCN(S(=O)(=O)c2cc(Br)cc(Br)c2)CC1 [(I-39)]
41 | 0.03 | – | O=C(NCc1ccc(Br)cc1)C1CCN(S(=O)(=O)c2cc(Cl)cc(Cl)c2)CC1 [(I-7)]
42 | 0.037 | – | O=C(NCc1ccc(Cl)cc1F)C1CCN(S(=O)(=O)c2cc(Cl)cc(Cl)c2)CC1 [(I-25)]

From patent publication US10793522B2, “Sulfonamides as inhibitors of the uptake of extracellular citrate” (Boehringer Ingelheim International GmbH, priority 2016, dated 2020)
